According to patent US20260022142A1, “MACROCYCLIC IMMUNOMODULATORS” (Bristol-Myers Squibb Company, priority 2022, published 2026):
Bridge positions count the residues as written; N and C are the ends. Square brackets hold non-standard residues; d marks the D form. Peptide text beside a SMILES is read from it. * marks the point of attachment. Phe(4-COOH) = N[C@@H](Cc1ccc(C(=O)O)cc1)C(=O)O; Bip = N[C@@H](Cc1ccc(-c2ccccc2)cc1)C(=O)O; Phe(3-Me) = Cc1cccc(C[C@H](N)C(=O)O)c1; Cha = N[C@@H](CC1CCCCC1)C(=O)O; Carboxymethyl = O=C(O)C*; Orn = NCCC[C@H](N)C(=O)O; Aun = NCCCCCCCCCCC(=O)O; Dab = NCC[C@H](N)C(=O)O; Dap = NC[C@H](N)C(=O)O; AEEA = NCCOCCOCC(=O)O

Target: T1, PD-1/PD-L1 interaction (PE-labeled human PD-L1-Ig binding to Jurkat cell line over-expressing human PD-1) (Homo sapiens, UniProt Q15116)
T1 construct: expressed in transfected cells; host or cells: Jurkat
Assay: Jurkat-PD-1 Cell Binding High-Content Screening Assay (CBA)
Assay type: cell-based
Conditions: Jurkat cell line over-expressing human PD-1; PE-labeled PD-L1-Ig 20 nM final; read-out: Jurkat hPD1-PDL1 IC50
Summary of the method: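 First, compound is added to PD-1-expressing Jurkat cells in serum-containing DMEM and left 2 h at 37° C. Next, PE-conjugated PD-L1-Ig is introduced at 20 nM final concentration for 1 hour. Finally, cells are fixed in 4% paraformaldehyde with Hoechst 33342, washed and imaged.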

T1 sequence (Q15116 25-288): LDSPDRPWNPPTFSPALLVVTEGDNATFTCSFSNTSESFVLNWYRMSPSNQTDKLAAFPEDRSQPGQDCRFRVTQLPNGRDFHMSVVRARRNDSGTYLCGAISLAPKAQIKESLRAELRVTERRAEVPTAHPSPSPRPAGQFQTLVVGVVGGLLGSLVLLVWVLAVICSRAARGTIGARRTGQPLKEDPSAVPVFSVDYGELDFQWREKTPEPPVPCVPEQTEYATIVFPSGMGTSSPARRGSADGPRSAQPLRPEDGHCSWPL

Compound | IC50
CC(C)C[C@H]1NC(=O)[C@H](CCCN)NC(=O)[C@H](C(C)C)NC(=O)[C@H](Cc2ccc(-c3ccccc3)cc2)NC(=O)[C@H](C(C)C)NC(=O)[C@H](Cc2c[nH]c3ccccc23)NC(=O)[C@H](CC(=O)O)NC(=O)[C@H](Cc2ccc(OCC(=O)O)cc2)NC(=O)[C@H](CN)NC(=O)CSC[C@@H](C(=O)NCCOCCOCC(=O)N[C@@H](CCN)C(=O)NCCCCCCCCCCC(=O)O)NC(=O)[C@H](CCCCN)NC(=O)[C@H](C(C)C)NC(=O)[C@H](CC2CCCCC2)NC(=O)[C@H](CCN)NC1=O [Compound 2541] ({CH2CO}-[Dap]Y(Carboxymethyl)DWV[Bip]V[Orn][dL][Dab][Cha]VKC[AEEA][Dab][Aun]-OH; thioether N-14) | 7.6 nM
Cc1cccc(C[C@@H]2NC(=O)[C@H](CC(=O)O)NC(=O)[C@H](Cc3ccc(OCC(=O)O)cc3)NC(=O)[C@H](CN)NC(=O)CSC[C@@H](C(=O)NCCOCCOCC(=O)N[C@@H](CCN)C(=O)NCCCCCCCCCCC(=O)O)NC(=O)[C@H](CN)NC(=O)[C@H](C(C)C)NC(=O)[C@H](CC3CCCCC3)NC(=O)[C@H](CCN)NC(=O)[C@@H](CC(C)C)NC(=O)[C@H](CCCN)NC(=O)[C@H](C(C)C)NC(=O)[C@H](Cc3ccc(-c4ccccc4)cc3)NC(=O)[C@H](C(C)C)NC2=O)c1 [Compound 2542] ({CH2CO}-[Dap]Y(Carboxymethyl)D[Phe(3-Me)]V[Bip]V[Orn][dL][Dab][Cha]V[Dap]C[AEEA][Dab][Aun]-OH; thioether N-14) | 4.9 nM
Cc1cccc(C[C@@H]2NC(=O)[C@H](CC(=O)O)NC(=O)[C@H](Cc3ccc(OCC(=O)O)cc3)NC(=O)[C@H](CN)NC(=O)CSC[C@@H](C(=O)NCCOCCOCC(=O)N[C@@H](CCN)C(=O)NCCCCCCCCCCC(=O)O)NC(=O)[C@H](CCCN)NC(=O)[C@H](C(C)C)NC(=O)[C@H](CC3CCCCC3)NC(=O)[C@H](CCN)NC(=O)[C@@H](CC(C)C)NC(=O)[C@H](CCCN)NC(=O)[C@H](C(C)C)NC(=O)[C@H](Cc3ccc(-c4ccccc4)cc3)NC(=O)[C@H](C(C)C)NC2=O)c1 [Compound 2543] ({CH2CO}-[Dap]Y(Carboxymethyl)D[Phe(3-Me)]V[Bip]V[Orn][dL][Dab][Cha]V[Orn]C[AEEA][Dab][Aun]-OH; thioether N-14) | 9.5 nM
Cc1cccc(C[C@@H]2NC(=O)[C@H](CC(=O)O)NC(=O)[C@H](Cc3ccc(OCC(=O)O)cc3)NC(=O)[C@H](CN)NC(=O)CSC[C@@H](C(=O)NCCOCCOCC(=O)N[C@@H](CCN)C(=O)NCCCCCCCCCCC(=O)O)NC(=O)[C@H](CCCNC(=N)N)NC(=O)[C@H](C(C)C)NC(=O)[C@H](CC3CCCCC3)NC(=O)[C@H](CCN)NC(=O)[C@@H](CC(C)C)NC(=O)[C@H](CCCN)NC(=O)[C@H](C(C)C)NC(=O)[C@H](Cc3ccc(-c4ccccc4)cc3)NC(=O)[C@H](C(C)C)NC2=O)c1 [Compound 2544] ({CH2CO}-[Dap]Y(Carboxymethyl)D[Phe(3-Me)]V[Bip]V[Orn][dL][Dab][Cha]VRC[AEEA][Dab][Aun]-OH; thioether N-14) | 10.7 nM
CC(C)C[C@H]1NC(=O)[C@H](CCCN)NC(=O)[C@H](C(C)C)NC(=O)[C@H](Cc2ccc(-c3ccccc3)cc2)NC(=O)[C@H](C(C)C)NC(=O)[C@H](Cc2c[nH]c3ccccc23)NC(=O)[C@H](CC(=O)O)NC(=O)[C@H](Cc2ccc(OCC(=O)O)cc2)NC(=O)[C@H](Cc2ccc(OCC(=O)O)cc2)NC(=O)CSC[C@@H](C(=O)NCCOCCOCC(=O)N[C@@H](CCN)C(=O)NCCCCCCCCCCC(=O)O)NC(=O)[C@H](CCCN)NC(=O)[C@H](C(C)C)NC(=O)[C@H](CC2CCCCC2)NC(=O)[C@H](CCN)NC1=O [Compound 2545] ({CH2CO}-Y(Carboxymethyl)Y(Carboxymethyl)DWV[Bip]V[Orn][dL][Dab][Cha]V[Orn]C[AEEA][Dab][Aun]-OH; thioether N-14) | 7.4 nM
CC(C)C[C@H]1NC(=O)[C@H](CCCN)NC(=O)[C@H](C(C)C)NC(=O)[C@H](Cc2ccc(-c3ccccc3)cc2)NC(=O)[C@H](C(C)C)NC(=O)[C@H](Cc2c[nH]c3ccccc23)NC(=O)[C@H](CC(=O)O)NC(=O)[C@H](Cc2ccc(OCC(=O)O)cc2)NC(=O)[C@H](Cc2ccc(OCC(=O)O)cc2)NC(=O)CSC[C@@H](C(=O)NCCOCCOCC(=O)N[C@@H](CCN)C(=O)NCCCCCCCCCCC(=O)O)NC(=O)[C@H](CN)NC(=O)[C@H](C(C)C)NC(=O)[C@H](CC2CCCCC2)NC(=O)[C@H](CCN)NC1=O [Compound 2546] ({CH2CO}-Y(Carboxymethyl)Y(Carboxymethyl)DWV[Bip]V[Orn][dL][Dab][Cha]V[Dap]C[AEEA][Dab][Aun]-OH; thioether N-14) | 13.3 nM
CC(C)C[C@H]1NC(=O)[C@H](CCCN)NC(=O)[C@H](C(C)C)NC(=O)[C@H](Cc2ccc(-c3ccccc3)cc2)NC(=O)[C@H](C(C)C)NC(=O)[C@H](Cc2c[nH]c3ccccc23)NC(=O)[C@H](CC(=O)O)NC(=O)[C@H](Cc2ccc(C(=O)O)cc2)NC(=O)[C@H](Cc2ccc(OCC(=O)O)cc2)NC(=O)CSC[C@@H](C(=O)N[C@@H](CCN)C(=O)NCCOCCOCC(=O)NCCCCCCCCCCC(=O)O)NC(=O)[C@H](CCCCN)NC(=O)[C@H](C(C)C)NC(=O)[C@H](CC2CCCCC2)NC(=O)[C@H](CCN)NC1=O [Compound 2547] ({CH2CO}-Y(Carboxymethyl)[Phe(4-COOH)]DWV[Bip]V[Orn][dL][Dab][Cha]VKC[Dab][AEEA][Aun]-OH; thioether N-14) | 31.9 nM

Further lines, results first:

IC50 | Compound
11.6 nM | CC(C)C[C@H]1NC(=O)[C@H](CCCN)NC(=O)[C@H](C(C)C)NC(=O)[C@H](Cc2ccc(-c3ccccc3)cc2)NC(=O)[C@H](C(C)C)NC(=O)[C@H](Cc2c[nH]c3ccccc23)NC(=O)[C@H](CC(=O)O)NC(=O)[C@H](Cc2ccc(OCC(=O)O)cc2)NC(=O)[C@H](Cc2ccc(OCC(=O)O)cc2)NC(=O)CSC[C@@H](C(=O)N[C@@H](CCN)C(=O)NCCOCCOCC(=O)NCCCCCCCCCCC(=O)O)NC(=O)[C@H](CCCNC(=N)N)NC(=O)[C@H](C(C)C)NC(=O)[C@H](CC2CCCCC2)NC(=O)[C@H](CCN)NC1=O [Compound 2548] ({CH2CO}-Y(Carboxymethyl)Y(Carboxymethyl)DWV[Bip]V[Orn][dL][Dab][Cha]VRC[Dab][AEEA][Aun]-OH; thioether N-14)
9.4 nM | CC(C)C[C@H]1NC(=O)[C@H](CCCN)NC(=O)[C@H](C(C)C)NC(=O)[C@H](Cc2ccc(-c3ccccc3)cc2)NC(=O)[C@H](C(C)C)NC(=O)[C@H](Cc2c[nH]c3ccccc23)NC(=O)[C@H](CC(=O)O)NC(=O)[C@H](Cc2ccc(OCC(=O)O)cc2)NC(=O)[C@H](CN)NC(=O)CSC[C@@H](C(=O)N[C@@H](CCN)C(=O)NCCOCCOCC(=O)NCCCCCCCCCCC(=O)O)NC(=O)[C@H](CCCCN)NC(=O)[C@H](C(C)C)NC(=O)[C@H](CC2CCCCC2)NC(=O)[C@H](CCN)NC1=O [Compound 2549] ({CH2CO}-[Dap]Y(Carboxymethyl)DWV[Bip]V[Orn][dL][Dab][Cha]VKC[Dab][AEEA][Aun]-OH; thioether N-14)
8 nM | Cc1cccc(C[C@@H]2NC(=O)[C@H](CC(=O)O)NC(=O)[C@H](Cc3ccc(OCC(=O)O)cc3)NC(=O)[C@H](CN)NC(=O)CSC[C@@H](C(=O)N[C@@H](CCN)C(=O)NCCOCCOCC(=O)NCCCCCCCCCCC(=O)O)NC(=O)[C@H](CN)NC(=O)[C@H](C(C)C)NC(=O)[C@H](CC3CCCCC3)NC(=O)[C@H](CCN)NC(=O)[C@@H](CC(C)C)NC(=O)[C@H](CCCN)NC(=O)[C@H](C(C)C)NC(=O)[C@H](Cc3ccc(-c4ccccc4)cc3)NC(=O)[C@H](C(C)C)NC2=O)c1 [Compound 2550] ({CH2CO}-[Dap]Y(Carboxymethyl)D[Phe(3-Me)]V[Bip]V[Orn][dL][Dab][Cha]V[Dap]C[Dab][AEEA][Aun]-OH; thioether N-14)
11.2 nM | Cc1cccc(C[C@@H]2NC(=O)[C@H](CC(=O)O)NC(=O)[C@H](Cc3ccc(OCC(=O)O)cc3)NC(=O)[C@H](CN)NC(=O)CSC[C@@H](C(=O)N[C@@H](CCN)C(=O)NCCOCCOCC(=O)NCCCCCCCCCCC(=O)O)NC(=O)[C@H](CCCN)NC(=O)[C@H](C(C)C)NC(=O)[C@H](CC3CCCCC3)NC(=O)[C@H](CCN)NC(=O)[C@@H](CC(C)C)NC(=O)[C@H](CCCN)NC(=O)[C@H](C(C)C)NC(=O)[C@H](Cc3ccc(-c4ccccc4)cc3)NC(=O)[C@H](C(C)C)NC2=O)c1 [Compound 2551] ({CH2CO}-[Dap]Y(Carboxymethyl)D[Phe(3-Me)]V[Bip]V[Orn][dL][Dab][Cha]V[Orn]C[Dab][AEEA][Aun]-OH; thioether N-14)
9.9 nM | Cc1cccc(C[C@@H]2NC(=O)[C@H](CC(=O)O)NC(=O)[C@H](Cc3ccc(OCC(=O)O)cc3)NC(=O)[C@H](CN)NC(=O)CSC[C@@H](C(=O)N[C@@H](CCN)C(=O)NCCOCCOCC(=O)NCCCCCCCCCCC(=O)O)NC(=O)[C@H](CCCNC(=N)N)NC(=O)[C@H](C(C)C)NC(=O)[C@H](CC3CCCCC3)NC(=O)[C@H](CCN)NC(=O)[C@@H](CC(C)C)NC(=O)[C@H](CCCN)NC(=O)[C@H](C(C)C)NC(=O)[C@H](Cc3ccc(-c4ccccc4)cc3)NC(=O)[C@H](C(C)C)NC2=O)c1 [Compound 2552] ({CH2CO}-[Dap]Y(Carboxymethyl)D[Phe(3-Me)]V[Bip]V[Orn][dL][Dab][Cha]VRC[Dab][AEEA][Aun]-OH; thioether N-14)
11.3 nM | CC(C)C[C@H]1NC(=O)[C@H](CCCN)NC(=O)[C@H](C(C)C)NC(=O)[C@H](Cc2ccc(-c3ccccc3)cc2)NC(=O)[C@H](C(C)C)NC(=O)[C@H](Cc2c[nH]c3ccccc23)NC(=O)[C@H](CC(=O)O)NC(=O)[C@H](Cc2ccc(OCC(=O)O)cc2)NC(=O)[C@H](Cc2ccc(OCC(=O)O)cc2)NC(=O)CSC[C@@H](C(=O)N[C@@H](CCN)C(=O)NCCOCCOCC(=O)NCCCCCCCCCCC(=O)O)NC(=O)[C@H](CCCN)NC(=O)[C@H](C(C)C)NC(=O)[C@H](CC2CCCCC2)NC(=O)[C@H](CCN)NC1=O [Compound 2553] ({CH2CO}-Y(Carboxymethyl)Y(Carboxymethyl)DWV[Bip]V[Orn][dL][Dab][Cha]V[Orn]C[Dab][AEEA][Aun]-OH; thioether N-14)
